Data from ChEMBL document CHEMBL1201862, “PubChem BioAssay data set” (2004).
Calls of active or inactive are those of the source.

Columns and labels:
[1] = target: T1, Galanin receptor type 3 (Homo sapiens, UniProt O60755); assay: Fluorescence-based cell-based primary high throughput dose response assay to identify antagonists of the Galanin Receptor 3 (GalR3).; type: functional
T1 sequence (O60755 whole entry): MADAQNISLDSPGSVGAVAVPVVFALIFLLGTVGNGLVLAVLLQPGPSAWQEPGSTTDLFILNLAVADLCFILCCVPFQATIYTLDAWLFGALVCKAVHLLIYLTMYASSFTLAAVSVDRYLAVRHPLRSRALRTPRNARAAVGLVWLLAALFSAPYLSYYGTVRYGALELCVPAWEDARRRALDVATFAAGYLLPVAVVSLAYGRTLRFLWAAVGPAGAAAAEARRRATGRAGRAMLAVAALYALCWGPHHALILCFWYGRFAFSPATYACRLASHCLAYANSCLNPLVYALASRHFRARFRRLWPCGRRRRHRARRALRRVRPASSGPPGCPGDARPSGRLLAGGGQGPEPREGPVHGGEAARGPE

[2] = target: T2, COUP transcription factor 2 (Homo sapiens, UniProt P24468); assay: Luminescence-based cell-based high throughput dose response assay to identify inhibitors of COUP-TFII (NR2F2).; type: functional;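 further: HEK293 cells transiently cotransfected with COUP-TFII expression vector and reporter; luciferase reporter luminescence driven by COUP-TFII from the pX2-168 reporter plasmid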
T2 sequence (P24468 whole entry): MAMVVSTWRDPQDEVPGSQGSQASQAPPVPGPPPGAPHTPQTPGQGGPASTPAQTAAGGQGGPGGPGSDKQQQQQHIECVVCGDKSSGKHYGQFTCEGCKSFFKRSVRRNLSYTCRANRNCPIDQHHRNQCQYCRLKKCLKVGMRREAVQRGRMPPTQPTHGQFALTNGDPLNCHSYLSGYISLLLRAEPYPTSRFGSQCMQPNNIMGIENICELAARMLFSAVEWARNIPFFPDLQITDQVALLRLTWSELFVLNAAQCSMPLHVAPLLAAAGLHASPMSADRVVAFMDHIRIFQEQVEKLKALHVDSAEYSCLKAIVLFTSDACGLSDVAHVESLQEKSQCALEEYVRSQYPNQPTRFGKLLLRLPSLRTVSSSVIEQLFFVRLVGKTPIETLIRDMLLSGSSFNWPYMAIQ

[3] = target: T3, Short transient receptor potential channel 4 (Mus musculus, UniProt Q9QUQ5); assay: mouse TRPC4 channel activators, dose response, cell-based, HEK293 TRPC4/mu-opioid, Fluo-4 calcium (AID 434937); type: functional
T3 sequence (Q9QUQ5 whole entry): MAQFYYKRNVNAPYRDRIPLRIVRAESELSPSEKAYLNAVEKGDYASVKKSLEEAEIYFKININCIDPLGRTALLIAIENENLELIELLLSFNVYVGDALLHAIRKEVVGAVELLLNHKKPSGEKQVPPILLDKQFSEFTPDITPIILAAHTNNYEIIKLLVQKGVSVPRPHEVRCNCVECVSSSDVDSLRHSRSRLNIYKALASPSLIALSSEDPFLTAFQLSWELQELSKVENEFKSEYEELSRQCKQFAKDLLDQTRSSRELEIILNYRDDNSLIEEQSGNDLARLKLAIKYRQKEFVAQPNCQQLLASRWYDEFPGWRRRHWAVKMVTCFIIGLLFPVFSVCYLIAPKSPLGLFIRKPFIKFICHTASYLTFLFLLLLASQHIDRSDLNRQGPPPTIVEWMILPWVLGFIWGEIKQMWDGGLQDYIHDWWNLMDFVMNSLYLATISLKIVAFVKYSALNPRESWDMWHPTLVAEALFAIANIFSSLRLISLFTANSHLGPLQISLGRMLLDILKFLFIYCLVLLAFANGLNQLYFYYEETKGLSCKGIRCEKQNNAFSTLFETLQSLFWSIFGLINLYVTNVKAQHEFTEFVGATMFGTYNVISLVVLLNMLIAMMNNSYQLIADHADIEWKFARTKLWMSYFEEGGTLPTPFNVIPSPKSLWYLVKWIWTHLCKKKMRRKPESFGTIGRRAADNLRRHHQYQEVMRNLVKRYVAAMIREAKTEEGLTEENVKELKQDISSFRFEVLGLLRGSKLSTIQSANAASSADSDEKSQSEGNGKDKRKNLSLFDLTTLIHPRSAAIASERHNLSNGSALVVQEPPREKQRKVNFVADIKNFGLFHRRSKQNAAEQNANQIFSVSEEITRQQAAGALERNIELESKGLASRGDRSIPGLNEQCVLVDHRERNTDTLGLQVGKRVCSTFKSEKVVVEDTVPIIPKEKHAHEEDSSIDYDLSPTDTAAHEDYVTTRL

[4] = cytotoxicity in HEK-293T cells, dose response, cytotoxicity control for TCR NF-kB inhibitor project, luminescence, T-cell screen hits (AID 489026); type: functional, cell-based;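 further: cells exposed to compound about 14 hours before the viability readout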
[5] = Shn3 3'UTR reporter inhibitors, dose response, cell-based, Clone20 osteoblasts, firefly luciferase, cherry-picked (AID 624132); type: functional;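 further: firefly luciferase luminescence from reporter carrying the Shn3 3'UTR in osteoblasts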
[6] = HepG2 cell cytotoxicity, dose response, cytotoxicity control for Shn3 inhibitor project, CellTiter-Glo, cherry-picked (AID 624134); type: functional, cell-based
[7] = control 3'UTR Renilla luciferase suppression, dose response, counter-screen for Shn3 inhibitor project, cell-based, Clone20-Shn3RL, cherry-picked (AID 624133); type: functional
[8] = CEM21 lymphoblast cell cytotoxicity, dose response, cytotoxicity control for viral fusion inhibitor project, CellTiter-Glo luminescence, cherry-picked (AID 652042); type: functional, cell-based;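 further: potency for signal decrease meaning cytotoxicity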
[9] = inhibitors of clade B AD8 Env fusion, dose response, cell-based, cherry-pick (AID 652062); type: functional;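 further: luciferase signal from cell-cell fusion driven by HIV-1 clade B AD8 Env; potency is for inhibitors of fusion seen as a drop in luminescence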
[10] = inhibitors of firefly luciferase expression or activity, dose response, H4 neuroglioma cells, luminescence (AID 1990); type: functional, cell-based
[11] = Luminescence Cell-Based Dose Response HTS to Identify Inhibitors of 5'UTR Stem-Loop Driven Prion Protein mRNA Translation in H4 Neuroglioblastoma Cells. [Related pubchem assays: 1827 (Project Summary), 1813 (Primary HTS)]; type: functional
[12] = inhibitors of SNCA 5'UTR-driven reporter translation, confirmation, H4 neuroglioma cells, luminescence (AID 1988); type: functional, cell-based
[13] = Fluorescence-based cell-based high throughput dose response assay for inhibitors of the interaction of nucleotide-binding oligomerization domain containing 2 (NOD2) and the receptor-interacting serine-threonine kinase 2 (RIPK2).; type: functional; settings: Homo sapiens
[14] = target: Beta Lactamase (Pseudomonas aeruginosa, UniProt Q932Y6); assay: beta-lactamase reporter inhibitor potency, dose response, artefact control for NOD2-RIPK2 interaction inhibitor project, BLA reporter cells, FRET fluorescence (AID 651552); type: functional, cell-based
Chain of Beta Lactamase (Q932Y6 whole entry): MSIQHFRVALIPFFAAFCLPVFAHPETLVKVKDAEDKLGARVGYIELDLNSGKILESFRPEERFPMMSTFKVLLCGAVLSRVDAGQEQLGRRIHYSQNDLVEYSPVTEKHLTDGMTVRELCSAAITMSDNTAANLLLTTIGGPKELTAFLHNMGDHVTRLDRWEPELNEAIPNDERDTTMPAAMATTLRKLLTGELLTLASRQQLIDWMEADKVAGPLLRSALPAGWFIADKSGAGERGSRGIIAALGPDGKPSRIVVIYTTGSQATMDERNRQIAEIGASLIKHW

[15] = NIH-3T3 fibroblast cytotoxicity, dose response, cytotoxicity control, cell-based, fluorescence, Alamar Blue, secondary assay (AID 2327); type: functional;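 further: NIH-3T3 mouse fibroblasts cultured with fluconazole at 8 µg/mL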
[16] = tested on: Streptococcus sp. 'group A'; assay: growth inhibition of control SK(-) GAS strain, dose response, counter-screen for streptokinase expression inhibitor project, luminescence, kanamycin, BacTiterGlo, confirmation (AID 1900); type: functional, organism-based
[17] = C. albicans growth with fluconazole, confirmation, fluorescence, retest (AID 2467); type: functional, cell-based
[18] = tested on: Streptococcus; assay: Group A Streptococcus viability loss, dose response, counter-screen for streptokinase expression inhibitor project, luminescence, BacTiterGlo (AID 1915); type: functional, organism-based;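 further: potency for reduction of bacterial viability or growth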
[19] = human group III sPLA2 inhibitors, dose response, biochemical, QFRET, IC50 (AID 743457);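 further: green fluorescence rise as the enzyme cleaves BODIPY PC-A2 in liposomes; potency for inhibition of the enzyme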
[20] = target: Paired box protein Pax-8 (Homo sapiens, UniProt Q06710); assay: inhibitors of PAX8-driven TPO luciferase reporter, dose response, RMG-I cells, cherry-pick (AID 687027); type: functional, cell-based;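 further: luciferase reporter driven by Pax8 target thyroperoxidase promoter measured by SteadyGlo luminescence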
Chain of Paired box protein Pax-8 (Q06710 whole entry): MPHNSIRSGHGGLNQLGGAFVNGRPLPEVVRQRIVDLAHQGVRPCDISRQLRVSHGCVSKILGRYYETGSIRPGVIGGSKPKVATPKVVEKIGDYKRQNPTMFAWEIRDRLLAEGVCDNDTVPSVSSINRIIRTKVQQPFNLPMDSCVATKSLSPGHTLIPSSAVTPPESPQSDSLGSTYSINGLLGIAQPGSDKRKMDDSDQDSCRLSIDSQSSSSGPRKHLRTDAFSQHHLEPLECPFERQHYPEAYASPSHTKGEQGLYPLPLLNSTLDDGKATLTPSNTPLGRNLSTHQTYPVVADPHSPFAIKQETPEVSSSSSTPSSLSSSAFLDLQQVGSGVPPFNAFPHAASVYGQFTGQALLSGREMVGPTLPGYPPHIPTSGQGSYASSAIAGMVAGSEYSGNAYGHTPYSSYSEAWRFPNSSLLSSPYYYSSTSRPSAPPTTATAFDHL

[21] = non-specific cell cytotoxicity, dose response, cytotoxicity control for PAX8 inhibitor project, plate reader, dry powder samples (AID 743021); type: functional, cell-based

## c1ccc(CNc2ncnc3ccccc23)cc1
[1]
  IC50: 2.42 µM (active)
[2]
  IC50: 10.3 µM (inactive)

## O=C(Nc1ccncc1)c1ccc(Cl)c(S(=O)(=O)N2CCc3ccccc32)c1
[3]
  EC50: 5.31 µM (active)
[4]
  IC50: 62.9 µM (inactive)
[5]
  AC50: 3.19 µM (active)
[6]
  AC50: 6.33 µM (active)
[7]
  AC50: 16.6 µM (active)
[8]
  AC50: 51.1 µM (active)
[9]
  AC50: 2.18 µM (active)
[2]
  IC50: 4.67 µM (active)

## COc1ccc(NC(=O)COc2ccc(N(C)S(=O)(=O)c3ccc(Cl)cc3)cc2)cc1OC
[5]
  AC50: 1.35 µM (active)
[6]
  AC50: 32.1 µM (active)
[7]
  AC50: 1.81 µM (active)
[2]
  IC50: 6.67 µM (active)

## Cc1cccc(CS(=O)(=O)c2ncc(Cl)c(C(=O)NCc3ccccc3)n2)c1
[10]
  EC50: > 120 µM (not active)
[11]
  EC50: 26.1 µM (active)
[12]
  EC50: 12 µM (active)
[5]
  AC50: 2.94 µM (active)
[6]
  AC50: 18.8 µM (active)
[7]
  AC50: 14 µM (active)
[13]
  IC50: 2.77 µM (active)
[14]
  IC50: 12.3 µM (inactive)

## S=C(Nc1ccc(Cl)cc1)c1nc2ccccc2[nH]1
[15]
  EC50: 19 µM (active)
[16]
  EC50: 1.26 µM (active)
[17]
  EC50: > 38 µM (not active)
[18]
  EC50: 3.17 µM (active)
[19]
  IC50: > 122 µM (inactive)

## Cc1nc(-c2ccc(NC(=O)c3ccco3)cc2)cs1
[20]
  AC50: 8.26 µM (active)
[21]
  AC50: 17.1 µM (active)
